Patent publication US12371454B2, “Cyclic peptide compound having Kras inhibitory action” (priority 2019, dated 2025)
Starred links: 1 amine or outer side, 2 acyl side, 3 side chain; linkers in the order of their positions; H or OH if unused. Positions of bridges follow the written chain, without caps; N, C: chain ends. Non-standard residues stand in square brackets, D forms with d. Residues, ends and D or L forms follow the SMILES beside them. *: point of attachment. hPhe(3,5-F2-4-CF3) = N[C@@H](CCc1cc(F)c(C(F)(F)F)c(F)c1)C(=O)O; hPhe(3-Cl-4-CF3) = N[C@@H](CCc1ccc(C(F)(F)F)c(Cl)c1)C(=O)O; NMePhe(4-CF3) = CN[C@@H](Cc1ccc(C(F)(F)F)cc1)C(=O)O; hPhe(4-CF3) = N[C@@H](CCc1ccc(C(F)(F)F)cc1)C(=O)O; NMePhe(4-Cl) = CN[C@@H](Cc1ccc(Cl)cc1)C(=O)O; NMePhe(4-Me) = CN[C@@H](Cc1ccc(C)cc1)C(=O)O; NMedβ3hAla = C[C@H](CC(=O)[*:2])N(C)[*:1]; X32 = O=C(CN(CCN1CCC(F)(F)CC1)[*:1])[*:2]; NMeGly(cPent) = CN[C@H](C(=O)O)C1CCCC1; Phe(3-I) = N[C@@H](Cc1cccc(I)c1)C(=O)O; Pro(4,4-F2) = O=C(O)[C@@H]1CC(F)(F)CN1; Ala(cPent) = N[C@@H](CC1CCCC1)C(=O)O; Phe(2-F) = N[C@@H](Cc1ccccc1F)C(=O)O; NMeCha = CN[C@@H](CC1CCCCC1)C(=O)O; hhPhe = N[C@@H](CCCc1ccccc1)C(=O)O; NMeChg = CN[C@H](C(=O)O)C1CCCCC1; NMeF = CN[C@@H](Cc1ccccc1)C(=O)O; NMeI = CC[C@H](C)[C@H](NC)C(=O)O; NMeD = CN[C@@H](CC(=O)O)C(=O)O; NMeL = CN[C@@H](CC(C)C)C(=O)O; NMeV = CN[C@H](C(=O)O)C(C)C; d(β3hA) = C[C@@H](N)CC(=O)O; NMeS = CN[C@@H](CO)C(=O)O; NMeA = CN[C@@H](C)C(=O)O; NMeAib = CNC(C)(C)C(=O)O; Piperidide = C1CCN(*)CC1; Ac5c = NC1(C(=O)O)CCCC1; Aze = O=C(O)[C@@H]1CCN1; Aib = CC(C)(N)C(=O)O; Sar = CNCC(=O)O

Molecular target: T1, Kras and SOS1 (biotin-tagged human Kras loaded with GDP, His-tagged human SOS1) (Homo sapiens, UniProt P01116, G12D)
T1 construct: made in house; host or cells: E. coli (stated for Kras only)
T1 sequence (P01116 1-188 isoform P01116-2 G12D): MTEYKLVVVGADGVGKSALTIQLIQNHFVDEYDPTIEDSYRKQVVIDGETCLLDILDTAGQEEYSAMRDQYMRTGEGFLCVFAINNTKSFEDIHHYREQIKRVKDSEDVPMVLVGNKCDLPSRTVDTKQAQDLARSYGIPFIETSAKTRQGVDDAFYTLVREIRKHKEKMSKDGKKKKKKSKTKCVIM
Test: Protein-protein interaction inhibition between Kras and SOS1 (KrasGl2D-SOS PPI) using AlphaScreen
Assay type: binding
Conditions: AlphaScreen; biotin-tagged human Kras loaded with GDP, His-tagged human SOS1; read-out: KRAS G12D-SOS PPI IC50
Summary of the method: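 Donor beads (nickel) hold His-SOS1; acceptor beads (streptavidin) hold biotin-Kras bound to GDP. Signal measured at 520-620 nm following 680 nm excitation.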

| Compound | IC50 |
| --- | --- |
| CC(C)C[C@H]1C(=O)N[C@@H](CC2CCCC2)C(=O)N(C)CC(=O)N(C)CC(=O)N(C)[C@@H](CC2CCCCC2)C(=O)N(C)CC(=O)N[C@@H](CCc2ccc(C(F)(F)F)c(Cl)c2)C(=O)N2CCC[C@H]2C(=O)NC2(CCCC2)C(=O)N(C)[C@@H](C(C)C)C(=O)N(C)[C@H](C(=O)N2CCCCC2)CC(=O)N1C [Compound 627] ([NMeL][Ala(cPent)][Sar][Sar][NMeCha][Sar][hPhe(3-Cl-4-CF3)]P[Ac5c][NMeV][NMeD]-Piperidide; lactam N-11) | 13 nM |
| CC[C@H](C)[C@@H]1NC(=O)[C@H](CC(C)C)N(C)C(=O)C[C@@H](C)N(C)C(=O)[C@H](C2CCCC2)N(C)C(=O)C2(CCCC2)NC(=O)[C@@H]2CC(F)(F)CN2C(=O)[C@H](CCc2cc(F)c(C(F)(F)F)c(F)c2)NC(=O)CN(C)C(=O)[C@H](CC2CCCCC2)N(C)C(=O)[C@@H]2CCN2C(=O)[C@H](C)N(C)C1=O [Compound 628] (cyclo([Ac5c][NMeGly(cPent)][NMedβ3hAla][NMeL]I[NMeA][Aze][NMeCha][Sar][hPhe(3,5-F2-4-CF3)][Pro(4,4-F2)])) | 20 nM |
| CC[C@H](C)[C@@H]1NC(=O)[C@H](CC(C)C)N(C)C(=O)C[C@@H](C(=O)N2CCCCC2)N(C)C(=O)[C@H]([C@@H](C)CC)N(C)C(=O)C2(CCCC2)NC(=O)[C@@H]2CCCN2C(=O)[C@H](CCc2ccc(C(F)(F)F)c(Cl)c2)NC(=O)CN(C)C(=O)[C@H](Cc2ccc(C(F)(F)F)cc2)N(C)C(=O)[C@@H]2CCN2C(=O)[C@H](C)N(C)C1=O [Compound 630] ([NMeL]I[NMeA][Aze][NMePhe(4-CF3)][Sar][hPhe(3-Cl-4-CF3)]P[Ac5c][NMeI][NMeD]-Piperidide; lactam N-11) | 1.7 nM |
| CC[C@H](C)[C@@H]1NC(=O)[C@H](C)N(C)C(=O)C[C@@H](C(=O)N2CCCCC2)N(C)C(=O)[C@H](C2CCCCC2)N(C)C(=O)C2(CCCC2)NC(=O)[C@@H]2CCCN2C(=O)[C@H](CCCc2ccccc2)NC(=O)CN(C)C(=O)[C@H](CC2CCCCC2)N(C)C(=O)CN(C)C(=O)CN(C)C1=O [Compound 633] ([NMeA]I[Sar][Sar][NMeCha][Sar][hhPhe]P[Ac5c][NMeChg][NMeD]-Piperidide; lactam N-11) | 120 nM |
| CC[C@H](C)[C@@H]1NC(=O)[C@H](CC(C)C)N(C)C(=O)C[C@@H](C)NC(=O)[C@H](C(C)C)N(C)C(=O)C2(CCCC2)NC(=O)[C@@H]2CCCN2C(=O)[C@H](CCc2ccc(C(F)(F)F)c(Cl)c2)NC(=O)CN(C)C(=O)[C@H](CC2CCCCC2)N(C)C(=O)CN(C)C(=O)CN(CCN2CCC(F)(F)CC2)C1=O [Compound 635] (cyclo([Ac5c][NMeV][d(β3hA)][NMeL]I[X32][Sar][NMeCha][Sar][hPhe(3-Cl-4-CF3)]P)) | 190 nM |
| CC[C@H](C)[C@@H]1NC(=O)[C@H](COC)N(C)C(=O)C[C@@H](C(=O)N2CCCCC2)N(C)C(=O)[C@H](C(C)C)N(C)C(=O)C2(CCCC2)NC(=O)[C@@H]2CCCN2C(=O)[C@H](CCc2ccc(C(F)(F)F)c(Cl)c2)NC(=O)CN(C)C(=O)[C@H](CC2CCCCC2)N(C)C(=O)[C@@H]2CCN2C(=O)[C@H](C)N(C)C1=O [Compound 636] ([NMeS](Me)I[NMeA][Aze][NMeCha][Sar][hPhe(3-Cl-4-CF3)]P[Ac5c][NMeV][NMeD]-Piperidide; lactam N-11) | 1.1 nM |
| CC[C@H](C)[C@@H]1NC(=O)[C@H](C)N(C)C(=O)C[C@@H](C(=O)N2CCCCC2)NC(=O)[C@H](CC(C)C)N(C)C(=O)[C@H](Cc2ccccc2)N(C)C(=O)[C@H](CC(C)C)NC(=O)[C@H](Cc2cccc(I)c2)NC(=O)CN(C)C(=O)[C@H](Cc2ccc(Cl)cc2)N(C)C(=O)CN(C)C(=O)CN(C)C1=O [Compound 637] ([NMeA]I[Sar][Sar][NMePhe(4-Cl)][Sar][Phe(3-I)]L[NMeF][NMeL]D-Piperidide; lactam N-11) | 26 nM |
| CC[C@H](C)[C@@H]1NC(=O)[C@H](CC(C)C)N(C)C(=O)C[C@@H](C(=O)N2CCCCC2)N(C)C(=O)[C@H](CC(C)C)NC(=O)C(C)(C)N(C)C(=O)[C@H](Cc2ccccc2F)NC(=O)[C@H](Cc2cccc(I)c2)NC(=O)CN(C)C(=O)[C@H](Cc2ccc(C)cc2)N(C)C(=O)[C@@H]2CCN2C(=O)CN(C)C1=O [Compound 638] ([NMeL]I[Sar][Aze][NMePhe(4-Me)][Sar][Phe(3-I)][Phe(2-F)][NMeAib]L[NMeD]-Piperidide; lactam N-11) | 45 nM |
| CC[C@H](C)[C@@H]1NC(=O)[C@H](CC(C)C)N(C)C(=O)C[C@@H](C)NC(=O)[C@H](C(C)C)N(C)C(=O)C(C)(C)NC(=O)[C@@H]2CCCN2C(=O)[C@H](CCc2ccc(C(F)(F)F)c(Cl)c2)NC(=O)CN(C)C(=O)[C@H](CC2CCCCC2)N(C)C(=O)CN(C)C(=O)CN(C)C1=O [Compound 641] (cyclo([Aib][NMeV][d(β3hA)][NMeL]I[Sar][Sar][NMeCha][Sar][hPhe(3-Cl-4-CF3)]P)) | 18 nM |
| CC[C@H](C)[C@@H]1NC(=O)[C@H](C(C)C)N(C)C(=O)C[C@@H](C)NC(=O)[C@H](CC(C)C)N(C)C(=O)C2(CCCC2)NC(=O)[C@H](CC(C)C)N(C)C(=O)[C@H](CCc2ccc(C(F)(F)F)cc2)NC(=O)CN(C)C(=O)[C@H](Cc2ccc(Cl)cc2)N(C)C(=O)[C@@H]2CCN2C(=O)CN(C)C1=O [Compound 645] (cyclo([Ac5c][NMeL][d(β3hA)][NMeV]I[Sar][Aze][NMePhe(4-Cl)][Sar][hPhe(4-CF3)][NMeL])) | 58 nM |
